Data as given in article PMC5429769, “Rational development of Stafib-2: a selective, nanomolar inhibitor of the transcription factor STAT5b” (Scientific Reports, 2017).
Changes are numbered by the printed parent chain.

Key:
Format in all cases: binding
STAT3 = test: Fluorescence polarization assay, STAT3; conditions: at 40 µM
STAT5a wild-type = molecular target: T1, STAT5a wild-type (Homo sapiens, UniProt P42229); test: Isothermal titration calorimetry, STAT5a wild-type
T1 sequence (P42229 1-794): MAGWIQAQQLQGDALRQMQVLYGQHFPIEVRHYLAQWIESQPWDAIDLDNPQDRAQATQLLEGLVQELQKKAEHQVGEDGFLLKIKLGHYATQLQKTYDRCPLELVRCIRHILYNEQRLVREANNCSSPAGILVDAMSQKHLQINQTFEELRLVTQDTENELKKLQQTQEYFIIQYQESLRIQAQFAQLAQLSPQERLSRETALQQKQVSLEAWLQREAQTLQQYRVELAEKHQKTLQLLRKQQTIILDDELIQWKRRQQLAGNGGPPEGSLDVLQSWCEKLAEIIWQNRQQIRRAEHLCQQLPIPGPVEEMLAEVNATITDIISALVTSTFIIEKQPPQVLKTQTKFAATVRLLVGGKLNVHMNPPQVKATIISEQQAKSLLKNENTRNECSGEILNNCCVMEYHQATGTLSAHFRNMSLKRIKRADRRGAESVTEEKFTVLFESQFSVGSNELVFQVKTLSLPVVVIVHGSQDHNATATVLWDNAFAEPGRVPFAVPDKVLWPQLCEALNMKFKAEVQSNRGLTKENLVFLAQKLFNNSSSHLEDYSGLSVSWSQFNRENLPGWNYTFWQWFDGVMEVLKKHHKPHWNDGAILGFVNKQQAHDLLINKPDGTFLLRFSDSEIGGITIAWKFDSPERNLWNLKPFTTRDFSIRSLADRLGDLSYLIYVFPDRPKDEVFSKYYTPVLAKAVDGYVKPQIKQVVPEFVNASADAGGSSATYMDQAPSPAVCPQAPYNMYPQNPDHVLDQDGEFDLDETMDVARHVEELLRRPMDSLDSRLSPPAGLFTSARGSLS

STAT5b Lys600Ala = molecular target: T2, STAT5b Lys600Ala (Homo sapiens, UniProt P51692, K600A); test: Isothermal titration calorimetry, STAT5b Lys600Ala; conditions: ITC, 25 °C
T2 sequence (P51692 1-787 K600A): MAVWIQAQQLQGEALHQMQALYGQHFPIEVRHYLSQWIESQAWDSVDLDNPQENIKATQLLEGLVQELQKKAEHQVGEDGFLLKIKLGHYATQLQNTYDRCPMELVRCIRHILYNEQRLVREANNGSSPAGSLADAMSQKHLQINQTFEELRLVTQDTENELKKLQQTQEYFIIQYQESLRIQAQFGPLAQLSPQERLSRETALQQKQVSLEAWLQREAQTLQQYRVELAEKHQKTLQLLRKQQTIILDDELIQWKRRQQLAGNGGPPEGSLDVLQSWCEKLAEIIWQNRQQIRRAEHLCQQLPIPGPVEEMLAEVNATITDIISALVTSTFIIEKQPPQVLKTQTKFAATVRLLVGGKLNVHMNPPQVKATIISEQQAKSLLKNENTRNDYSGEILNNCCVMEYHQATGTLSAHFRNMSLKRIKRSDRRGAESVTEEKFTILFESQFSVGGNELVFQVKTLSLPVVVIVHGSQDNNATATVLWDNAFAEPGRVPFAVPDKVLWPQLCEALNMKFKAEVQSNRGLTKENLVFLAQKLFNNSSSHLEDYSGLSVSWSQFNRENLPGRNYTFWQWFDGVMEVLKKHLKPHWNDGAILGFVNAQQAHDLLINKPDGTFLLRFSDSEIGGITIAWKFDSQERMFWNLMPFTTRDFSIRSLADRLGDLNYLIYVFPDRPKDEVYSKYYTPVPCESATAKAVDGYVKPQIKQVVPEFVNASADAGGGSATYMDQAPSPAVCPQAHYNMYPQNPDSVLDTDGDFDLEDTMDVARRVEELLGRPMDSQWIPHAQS

Lck SH2 = molecular target: T3, Lck SH2 (Homo sapiens, UniProt P06239); test: Fluorescence polarization assay, Lck SH2; conditions: read-out: Lck SH2 maximum inhibition
T3 construct: the more distantly related SH2 domain of the tyrosine kinase Lck
T3 sequence (P06239 127-224 limits assumed): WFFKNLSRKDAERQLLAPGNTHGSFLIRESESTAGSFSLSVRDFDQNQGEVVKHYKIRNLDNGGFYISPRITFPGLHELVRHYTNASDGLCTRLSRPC

STAT5b Phe633Ala = molecular target: T4, STAT5b Phe633Ala (Homo sapiens, UniProt P51692, F633A); test: Isothermal titration calorimetry, STAT5b Phe633Ala; conditions: ITC, 25 °C, n = 2
T4 sequence (P51692 1-787 F633A): T2 sequence (P51692 1-787 K600A) with A600K, F633A

With O=C(COc1ccc(C(=O)Nc2ccc(Oc3ccccc3)cc2)cc1)NCc1ccc(OP(=O)(O)O)c(OP(=O)(O)O)c1 [compound 4, 4-((2-(4-((4-phenoxyphenyl)carbamoyl)phenoxy)acetamido)methyl)-1,2-phenylene bis(dihydrogen phosphate)] the STAT3 maximum inhibition (STAT3) was 30 ± 3%, the “fold lower affinity for STAT5a than for STAT5b” value (STAT5a wild-type; ITC Kd STAT5a vs wild-type STAT5b) was “approximately 20 fold” and the Kd (STAT5a wild-type; ITC, 25 °C, STAT5a) was 6.1 ± 3.2 µM. It also gave a Kd (STAT5b Lys600Ala) of 23 ± 10 µM, an inhibition at 40 µM (Lck SH2) of 25 ± 2% and a Kd (STAT5b Phe633Ala) of 1.65 ± 0.02 µM. The ΔH (STAT5b Phe633Ala) was -4.3 ± 0.2 kcal/mol and the “−TΔS” value (STAT5b Phe633Ala) was -3.6 ± 0.2 kcal/mol.
